Experimental data as given in ChEMBL document CHEMBL4814045, “Discovery of novel Staphylococcus aureus penicillin binding protein 2a inhibitors by multistep virtual screening and biological evaluation” (Bioorg Med Chem Lett, 2021).
In brackets after ≈: the same amount, converted by molar mass.

Legend:
MecA = target: T1, MecA (Staphylococcus aureus, UniProt Q7DHH4); assay: Binding affinity to Staphylococcus aureus PBP2a assessed as equilibrium dissociation constant by SPR assay
T1 sequence (Q7DHH4 whole entry): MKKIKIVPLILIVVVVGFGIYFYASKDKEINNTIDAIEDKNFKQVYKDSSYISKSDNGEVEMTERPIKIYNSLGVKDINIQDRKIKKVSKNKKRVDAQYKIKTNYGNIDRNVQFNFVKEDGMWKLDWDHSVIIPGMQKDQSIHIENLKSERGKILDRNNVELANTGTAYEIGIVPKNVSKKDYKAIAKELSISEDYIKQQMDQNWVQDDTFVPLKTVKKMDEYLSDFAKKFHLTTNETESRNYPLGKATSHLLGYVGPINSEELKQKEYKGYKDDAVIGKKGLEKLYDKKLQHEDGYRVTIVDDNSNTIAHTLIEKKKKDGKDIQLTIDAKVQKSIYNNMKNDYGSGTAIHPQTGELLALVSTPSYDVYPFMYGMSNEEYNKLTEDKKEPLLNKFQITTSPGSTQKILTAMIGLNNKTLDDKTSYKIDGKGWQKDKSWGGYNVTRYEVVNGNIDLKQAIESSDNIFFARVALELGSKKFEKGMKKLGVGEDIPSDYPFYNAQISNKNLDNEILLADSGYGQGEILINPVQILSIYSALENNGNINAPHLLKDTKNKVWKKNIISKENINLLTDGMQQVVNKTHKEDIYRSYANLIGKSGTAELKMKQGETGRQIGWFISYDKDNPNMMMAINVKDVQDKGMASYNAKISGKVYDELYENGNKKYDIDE

Staphylococcus aureus [1] = assay: Antibacterial activity against Staphylococcus aureus […]; format: functional
Staphylococcus aureus [2] = assay: Antibacterial activity against methicillin-resistant Staphylococcus aureus ATCC 33591; format: functional
[3] = target: T2, MecA (Staphylococcus aureus) (UniProt Q7DHH4); assay: Binding affinity to Staphylococcus aureus PBP2a assessed as association constant by SPR assay
T2 sequence (whole entry): T1 sequence (Q7DHH4 whole entry)

L02 = assay: Cytotoxicity against human LO2 cells; format: cell-based
Staphylococcus aureus [4] = assay: Bactericidal activity against methicillin-resistant Staphylococcus aureus 10 clinical isolate by broth dilution assay; format: functional
Staphylococcus aureus [5] = assay: Bactericidal activity against methicillin-resistant Staphylococcus aureus 12 clinical isolate by broth dilution assay; format: functional
Staphylococcus aureus [6] = assay: Bactericidal activity against methicillin-resistant Staphylococcus aureus 04 clinical isolate by broth dilution assay; format: functional
Staphylococcus aureus [7] = assay: Bactericidal activity against methicillin-resistant Staphylococcus aureus 05 clinical isolate by broth dilution assay; format: functional
Staphylococcus aureus [8] = assay: Antibacterial activity against methicillin-resistant Staphylococcus aureus 11 clinical isolate by broth dilution assay; format: functional
Staphylococcus aureus [9] = assay: Bactericidal activity against methicillin-resistant Staphylococcus aureus 06 clinical isolate by broth dilution assay; format: functional
Staphylococcus aureus [10] = assay: Bactericidal activity against methicillin-resistant Staphylococcus aureus 07 clinical isolate by broth dilution assay; format: functional
Staphylococcus aureus [11] = assay: Antibacterial activity against methicillin-resistant Staphylococcus aureus 12 clinical isolate by broth dilution assay; format: functional
Staphylococcus aureus [12] = assay: Bactericidal activity against methicillin-resistant Staphylococcus aureus 11 clinical isolate by broth dilution assay; format: functional
Staphylococcus aureus [13] = assay: Bactericidal activity against methicillin-resistant Staphylococcus aureus 13 clinical isolate by broth dilution assay; format: functional
Staphylococcus aureus [14] = assay: Bactericidal activity against methicillin-resistant Staphylococcus aureus 09 clinical isolate by broth dilution assay; format: functional
Staphylococcus aureus [15] = assay: Antibacterial activity against methicillin-resistant Staphylococcus aureus 03 clinical isolate by broth dilution assay; format: functional
Staphylococcus aureus [16] = assay: Bactericidal activity against methicillin-resistant Staphylococcus aureus 01 clinical isolate by broth dilution assay; format: functional
Staphylococcus aureus [17] = assay: Bactericidal activity against methicillin-resistant Staphylococcus aureus 03 clinical isolate by broth dilution assay; format: functional
Staphylococcus aureus [18] = assay: Bactericidal activity against methicillin-resistant Staphylococcus aureus 02 clinical isolate by broth dilution assay; format: functional
Staphylococcus aureus [19] = assay: Antibacterial activity against methicillin-resistant Staphylococcus aureus 08 clinical isolate by broth dilution assay; format: functional
Staphylococcus aureus [20] = assay: Bactericidal activity against methicillin-resistant Staphylococcus aureus 08 clinical isolate by broth dilution assay; format: functional
Staphylococcus aureus [21] = assay: Antibacterial activity against methicillin-resistant Staphylococcus aureus 06 clinical isolate by broth dilution assay; format: functional
Staphylococcus aureus [22] = assay: Antibacterial activity against methicillin-resistant Staphylococcus aureus 04 clinical isolate by broth dilution assay; format: functional
Staphylococcus aureus [23] = assay: Antibacterial activity against methicillin-resistant Staphylococcus aureus 10 clinical isolate by broth dilution assay; format: functional
Staphylococcus aureus [24] = assay: Antibacterial activity against methicillin-resistant Staphylococcus aureus 13 clinical isolate by broth dilution assay; format: functional
Staphylococcus aureus [25] = assay: Antibacterial activity against methicillin-resistant Staphylococcus aureus 05 clinical isolate by broth dilution assay; format: functional
Staphylococcus aureus [26] = assay: Antibacterial activity against methicillin-resistant Staphylococcus aureus 01 clinical isolate by broth dilution assay; format: functional
Staphylococcus aureus [27] = assay: Antibacterial activity against methicillin-resistant Staphylococcus aureus 07 clinical isolate by broth dilution assay; format: functional
Staphylococcus aureus [28] = assay: Antibacterial activity against methicillin-resistant Staphylococcus aureus 09 clinical isolate by broth dilution assay; format: functional
Staphylococcus aureus [29] = assay: Antibacterial activity against methicillin-resistant Staphylococcus aureus 02 clinical isolate by broth dilution assay; format: functional

For `COc1ccc(-c2cc(=O)oc3c(C)c(OCC(=O)N[C@@H](Cc4c[nH]c5ccc(O)cc45)C(=O)O)ccc23)cc1`, the Kd (MecA) was 0.264 µM, the MIC (Staphylococcus aureus [1]) was 4 µg/mL (≈ 7.37 µM) and the MIC (Staphylococcus aureus [2]) was 4 µg/mL (≈ 7.37 µM). For the same molecule, the Ka [3] was 5.65 10^5/M/s and the IC50 (L02) was 11.6 µM.

In the case of `C[C@]12CCC(=O)C=C1CC[C@@H]1[C@H]2CC[C@@]2(C)[C@H]1CC[C@]2(O)C(=O)COC(=O)CCC(=O)N[C@H]1CCCCNC1=O`, the MIC (Staphylococcus aureus [1]) is reported as 4 µg/mL (≈ 7.19 µM), the MIC (Staphylococcus aureus [2]) is reported as 4 µg/mL (≈ 7.19 µM) and the IC50 (L02) is reported as 16.9 µM.

With `O=C(C[C@@H]1NC(=O)c2ccccc2NC1=O)NCCc1c[nH]c2ccc(OCc3ccccc3)cc12` the MIC (Staphylococcus aureus [1]) was 64 µg/mL (≈ 133 µM), the MIC (Staphylococcus aureus [2]) was 32 µg/mL (≈ 66.3 µM) and the IC50 (L02) was > 20 µM.

With `CC(=O)Nc1ccc(NC(=O)COc2cc3c(c4oc(=O)c(C)c(C)c24)CCC(C)(C)O3)cc1` the MIC (Staphylococcus aureus [1]) was 32 µg/mL (≈ 68.9 µM), the MIC (Staphylococcus aureus [2]) was 64 µg/mL (≈ 138 µM) and the IC50 (L02) was > 20 µM.

`CC[C@H](C)[C@@H](CC(=O)CNC(=O)CCc1c(C)c2cc3oc(C)c(-c4ccccc4)c3c(C)c2oc1=O)C(=O)O` was tested, and the MIC (Staphylococcus aureus [1]) was 32 µg/mL (≈ 58.6 µM), the MIC (Staphylococcus aureus [2]) was 64 µg/mL (≈ 117 µM) and the IC50 (L02) was > 20 µM.

In the case of `COc1ccc(CCNC(=O)COc2ccc3c(c2)OC2(CCN(C(C)=O)CC2)CC3=O)cc1OC`, the MIC (Staphylococcus aureus [1]) is reported as 16 µg/mL (≈ 32.2 µM), the MIC (Staphylococcus aureus [2]) is reported as 64 µg/mL (≈ 129 µM) and the IC50 (L02) is reported as 7.8 µM.

Molecule `COc1ccc(NC(=O)[C@H]2Oc3c(c(=O)oc4ccccc34)[C@@H]2c2ccc(CCCN3CCCC3=O)cc2)cc1` has a Kd (MecA) of 86.6 µM, an MIC (Staphylococcus aureus [1]) of 128 µg/mL (≈ 238 µM) and an MIC (Staphylococcus aureus [2]) of 64 µg/mL (≈ 119 µM). For the same molecule, the Ka [3] was 2.46 10^4/M/s and the IC50 (L02) was > 20 µM.

`COc1cc2c(c(OC)c1OC)-c1ccc(NCC(=O)NCCc3c[nH]c4ccccc34)c(=O)cc1[C@@H](NC(C)=O)CC2` gave a Kd (MecA) of 0.168 µM, an MIC (Staphylococcus aureus [1]) of 2 µg/mL (≈ 3.42 µM) and an MIC (Staphylococcus aureus [2]) of 4 µg/mL (≈ 6.84 µM). For the same molecule, the Ka [3] was 3.48 10^5/M/s and the IC50 (L02) was > 20 µM.

For `CN[C@H](CC(C)C)C(=O)N[C@H]1C(=O)N[C@@H](CC(N)=O)C(=O)N[C@H]2C(=O)N[C@H]3C(=O)N[C@H](C(=O)N[C@H](C(=O)O)c4cc(O)cc(O)c4-c4cc3ccc4O)[C@H](O)c3ccc(c(Cl)c3)Oc3cc2cc(c3O[C@@H]2O[C@H](CO)[C@@H](O)[C@H](O)[C@H]2O[C@H]2C[C@](C)(N)[C@H](O)[C@H](C)O2)Oc2ccc(cc2Cl)[C@H]1O` [VANCOMYCIN], the MBC (Staphylococcus aureus [4]) was 128 µg/mL (≈ 88.3 µM), the MBC (Staphylococcus aureus [5]) was 128 µg/mL (≈ 88.3 µM) and the MBC (Staphylococcus aureus [6]) was 128 µg/mL (≈ 88.3 µM). For the same molecule, the MBC (Staphylococcus aureus [7]) was 64 µg/mL (≈ 44.2 µM), the MIC (Staphylococcus aureus [8]) was 16 µg/mL (≈ 11 µM) and the MBC (Staphylococcus aureus [9]) was 8 µg/mL (≈ 5.52 µM). It also gave an MBC (Staphylococcus aureus [10]) of 32 µg/mL (≈ 22.1 µM), an MIC (Staphylococcus aureus [11]) of 8 µg/mL (≈ 5.52 µM) and an MBC (Staphylococcus aureus [12]) of 64 µg/mL (≈ 44.2 µM). The MBC (Staphylococcus aureus [13]) was 64 µg/mL (≈ 44.2 µM), the MBC (Staphylococcus aureus [14]) was 32 µg/mL (≈ 22.1 µM) and the MIC (Staphylococcus aureus [15]) was 8 µg/mL (≈ 5.52 µM). It also gave an MBC (Staphylococcus aureus [16]) of 32 µg/mL (≈ 22.1 µM), an MBC (Staphylococcus aureus [17]) of 128 µg/mL (≈ 88.3 µM) and an MBC (Staphylococcus aureus [18]) of 64 µg/mL (≈ 44.2 µM). For the same molecule, the MIC (Staphylococcus aureus [19]) was 8 µg/mL (≈ 5.52 µM), the MBC (Staphylococcus aureus [20]) was 64 µg/mL (≈ 44.2 µM) and the IC50 (L02) was > 20 µM.

Molecule `Cc1ccc(NC(=O)[C@H](Cc2c[nH]c3ccccc23)NC(=O)C2CCN(C(=O)CNC(=O)OC(C)(C)C)CC2)cc1` has an MBC (Staphylococcus aureus [4]) of 64 µg/mL (≈ 114 µM), an MBC (Staphylococcus aureus [5]) of 256 µg/mL (≈ 456 µM) and a Kd (MecA) of 0.129 µM. For the same molecule, the MBC (Staphylococcus aureus [6]) was 64 µg/mL (≈ 114 µM), the MBC (Staphylococcus aureus [7]) was 8 µg/mL (≈ 14.2 µM) and the MIC (Staphylococcus aureus [21]) was 4 µg/mL (≈ 7.12 µM). The MIC (Staphylococcus aureus [8]) was 2 µg/mL (≈ 3.56 µM), the MIC (Staphylococcus aureus [22]) was 4 µg/mL (≈ 7.12 µM) and the MIC (Staphylococcus aureus [23]) was 4 µg/mL (≈ 7.12 µM). For the same molecule, the MBC (Staphylococcus aureus [9]) was 64 µg/mL (≈ 114 µM), the MBC (Staphylococcus aureus [10]) was 64 µg/mL (≈ 114 µM) and the MIC (Staphylococcus aureus [1]) was 2 µg/mL (≈ 3.56 µM). It also gave an MIC (Staphylococcus aureus [24]) of 16 µg/mL (≈ 28.5 µM), an MIC (Staphylococcus aureus [11]) of 8 µg/mL (≈ 14.2 µM) and an MBC (Staphylococcus aureus [12]) of 128 µg/mL (≈ 228 µM). The MIC (Staphylococcus aureus [2]) was 2 µg/mL (≈ 3.56 µM), the MIC (Staphylococcus aureus [25]) was 1 µg/mL (≈ 1.78 µM) and the MBC (Staphylococcus aureus [13]) was 128 µg/mL (≈ 228 µM). For the same molecule, the MIC (Staphylococcus aureus [26]) was 2 µg/mL (≈ 3.56 µM), the Ka [3] was 3.28 10^5/M/s and the MIC (Staphylococcus aureus [27]) was 4 µg/mL (≈ 7.12 µM). It also gave an MIC (Staphylococcus aureus [28]) of 16 µg/mL (≈ 28.5 µM), an MBC (Staphylococcus aureus [14]) of 64 µg/mL (≈ 114 µM) and an MIC (Staphylococcus aureus [15]) of 8 µg/mL (≈ 14.2 µM). The MBC (Staphylococcus aureus [16]) was 32 µg/mL (≈ 57 µM), the MBC (Staphylococcus aureus [17]) was 128 µg/mL (≈ 228 µM) and the MBC (Staphylococcus aureus [18]) was 64 µg/mL (≈ 114 µM). The MIC (Staphylococcus aureus [19]) was 0.5 µg/mL (≈ 0.89 µM), the MIC (Staphylococcus aureus [29]) was 4 µg/mL (≈ 7.12 µM) and the MBC (Staphylococcus aureus [20]) was 32 µg/mL (≈ 57 µM). For the same molecule, the IC50 (L02) was > 20 µM.

For `COc1cccc(/C=C2\Oc3cc(OCC(=O)N[C@@H](Cc4c[nH]c5ccccc45)C(=O)O)ccc3C2=O)c1`, the MIC (Staphylococcus aureus [1]) was 4 µg/mL (≈ 7.8 µM), the MIC (Staphylococcus aureus [2]) was 8 µg/mL (≈ 15.6 µM) and the IC50 (L02) was > 20 µM.

`COc1ccc(CNC(=O)[C@@H](C)Oc2ccc3c(c2)c2cncc4c5cc(OC)c(OC)cc5c(=O)n3c42)c(OC)c1` showed an MIC (Staphylococcus aureus [1]) of 64 µg/mL (≈ 113 µM), an MIC (Staphylococcus aureus [2]) of 128 µg/mL (≈ 226 µM) and an IC50 (L02) of 6.4 µM.
